Laboratory results taken from patent publication US20080311126A1, “Antisense Oligonucleotides Directed to Ribonucleotide Reducatase R2 and Uses Thereof in Combination Therapies for the Treatment of Cancer” (Genesense Technologies, Inc, priority 2004, published 2008).

Key:
[1] = tested on: Human taxol-resistant promyelocytic leukaemia cells (HL-60); assay: HL-60 taxol-resistant promyelocytic leukaemia xenograft in SCID mice; assay type: in vivo
Procedure: Human taxol-resistant promyelocytic leukaemia cells (HL-60) (7×10^6 cells in 100 μl of PBS) were injected into the right flank of 6-7 weeks old female SCID mice. After the size of tumour reached an approximate volume of 100 mm^3, 10 days post tumour cell injection, SEQ ID NO:1 was administered by bolus infusion into the tail vein every other day at 10 mg/kg. Control animals received saline alone for the same period. The anti-tumour effect of SEQ ID NO:1 was further compared to that of taxol. Taxol was administered i.p. once a week at a dose of 10 mg/kg. Anti-tumour activity was estimated by the inhibition of tumour volume, which was measured with caliper. Each point represents mean tumour volume calculated from 10 animals per experimental group. In addition animals were sacrificed and tumour weights taken at the end of the study.

[2] = tested on: Mouse Fibrosarcoma; assay: Tumour growth assay, mouse fibrosarcoma in C3H mice; assay type: in vivo

GGCTAAATCGCTCCACCAAG (chemistry not given here) [SEQ ID NO: 1, antisense oligonucleotide that hybridizes to the coding region of human ribonucleotide reductase R2 mRNA]
Tumour weight as % of saline control ([1]; HL-60 (leukemia), Taxol resistance, SCID): 38%
anti-tumour effect (tumour volume, tumour weight) ([1]; SEQ ID NO:1 10 mg/kg every other day, Taxol 10 mg/kg i.p. weekly): significant reduction of tumour weight
Inhibition of tumour volume ([2]; C3H mice, Day 15 after tumour implantation): mice by approximately 80% on Day 15
dose dependence of decrease in tumour weight ([2]; C3H mice, doses of 0.5 to 30 mg/kg): Dose-dependent decrease in tumour
Inhibition of tumour weight ([2]; Mouse Fibrosarcoma): approximately 80%
